Test results from ChEMBL document CHEMBL4507299, “Data for DCP probe PF-04554878” (2021).

Assays:
[1] = biological target: Mitogen-activated protein kinase kinase kinase kinase 1 (Homo sapiens) (UniProt Q92918)
[2] = biological target: Serine/threonine-protein kinase pim-3 (Homo sapiens) (UniProt Q86V86)
[3] = biological target: SRSF protein kinase 2 (Homo sapiens) (UniProt P78362)
[4] = biological target: AP2-associated protein kinase 1 (Homo sapiens) (UniProt Q2M2I8)
[5] = biological target: Dual specificity protein kinase CLK1 (Homo sapiens, UniProt P49759)
[6] = biological target: Ribosomal protein S6 kinase alpha-5 (Homo sapiens) (UniProt O75582)
[7] = biological target: Serine/threonine-protein kinase MARK1 (Homo sapiens, UniProt Q9P0L2)
[8] = biological target: T1, Inhibitor of nuclear factor kappa-B kinase subunit epsilon (Homo sapiens) (UniProt Q14164)
T1 sequence (whole entry): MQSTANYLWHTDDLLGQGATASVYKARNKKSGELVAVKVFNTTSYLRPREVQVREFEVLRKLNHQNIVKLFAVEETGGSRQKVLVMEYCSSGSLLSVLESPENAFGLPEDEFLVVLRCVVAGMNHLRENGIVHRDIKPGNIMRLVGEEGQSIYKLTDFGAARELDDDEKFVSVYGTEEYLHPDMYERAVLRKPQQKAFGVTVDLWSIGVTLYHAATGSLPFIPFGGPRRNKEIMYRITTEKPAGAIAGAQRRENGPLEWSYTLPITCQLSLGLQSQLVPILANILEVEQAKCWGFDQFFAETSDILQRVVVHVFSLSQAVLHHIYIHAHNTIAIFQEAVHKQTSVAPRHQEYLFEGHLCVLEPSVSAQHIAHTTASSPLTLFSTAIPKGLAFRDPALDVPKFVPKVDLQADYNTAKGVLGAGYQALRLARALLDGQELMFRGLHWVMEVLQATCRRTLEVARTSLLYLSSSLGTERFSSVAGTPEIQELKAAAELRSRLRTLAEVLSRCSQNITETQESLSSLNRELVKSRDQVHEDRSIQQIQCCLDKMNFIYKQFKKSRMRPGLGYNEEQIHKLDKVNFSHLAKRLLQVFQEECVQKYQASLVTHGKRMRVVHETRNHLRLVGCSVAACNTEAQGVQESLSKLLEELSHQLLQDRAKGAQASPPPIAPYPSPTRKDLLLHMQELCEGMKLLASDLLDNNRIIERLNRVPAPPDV

[9] = biological target: Tyrosine-protein kinase ITK/TSK (Homo sapiens) (UniProt Q08881)
[10] = biological target: Serine/threonine-protein kinase B-raf (Homo sapiens) (UniProt P15056)
[11] = biological target: LIM domain kinase 2 (Homo sapiens) (UniProt P53671)
[12] = biological target: Mitogen-activated protein kinase 3 (Homo sapiens) (UniProt P27361)
[13] = biological target: Homeodomain-interacting protein kinase 3 (Homo sapiens) (UniProt Q9H422)
[14] = biological target: Ankyrin repeat and protein kinase domain-containing protein 1 (Homo sapiens) (UniProt Q8NFD2)
[15] = biological target: Dual specificity protein kinase CLK4 (Homo sapiens) (UniProt Q9HAZ1)
[16] = biological target: Mitogen-activated protein kinase kinase kinase 10 (Homo sapiens) (UniProt Q02779)
[17] = biological target: Dual specificity protein kinase TTK (Homo sapiens) (UniProt P33981)
[18] = biological target: Serine/threonine-protein kinase SBK1 (Homo sapiens) (UniProt Q52WX2)
[19] = biological target: Mitogen-activated protein kinase kinase kinase 3 (Homo sapiens) (UniProt Q99759)
[20] = biological target: Sodium-dependent noradrenaline transporter (Homo sapiens) (UniProt P23975); conditions: Compound concentration 10.0 uM
[21] = biological target: Serine/threonine-protein kinase DCLK3 (Homo sapiens) (UniProt Q9C098)
[22] = biological target: Tyrosine-protein kinase Mer (Homo sapiens) (UniProt Q12866)
[23] = biological target: Tyrosine-protein kinase ABL1 (Homo sapiens, UniProt P00519)
[24] = biological target: Phosphatidylinositol 5-phosphate 4-kinase type-2 beta (Homo sapiens) (UniProt P78356)
[25] = biological target: Serine/threonine-protein kinase PAK 3 (Homo sapiens) (UniProt O75914)
[26] = biological target: Phosphorylase b kinase regulatory subunit alpha, liver isoform (Homo sapiens) (UniProt P46019)
[27] = biological target: Ribosomal protein S6 kinase alpha-1 (Homo sapiens) (UniProt Q15418)
[28] = biological target: Leukocyte tyrosine kinase receptor (Homo sapiens) (UniProt P29376)
[29] = biological target: Serine/threonine-protein kinase WNK4 (Homo sapiens) (UniProt Q96J92)
[30] = biological target: Ephrin type-A receptor 3 (Homo sapiens) (UniProt P29320)
[31] = biological target: Serine/threonine-protein kinase PLK1 (Homo sapiens) (UniProt P53350)
[32] = biological target: Tyrosine-protein kinase Srms (Homo sapiens) (UniProt Q9H3Y6)
[33] = biological target: Casein kinase II subunit alpha' (Homo sapiens) (UniProt P19784)
[34] = biological target: Serine/threonine-protein kinase tousled-like 2 (Homo sapiens) (UniProt Q86UE8)
[35] = biological target: Mitogen-activated protein kinase kinase kinase 12 (Homo sapiens) (UniProt Q12852)
Rattus norvegicus = species: Rattus norvegicus; conditions: Compound concentration 10.0 uM
[36] = Compound concentration 100.0 nM
[37] = Compound concentration 1000.0 nM

Chain of Phosphatidylinositol 5-phosphate 4-kinase type-2 beta (Homo sapiens) (P78356 whole entry): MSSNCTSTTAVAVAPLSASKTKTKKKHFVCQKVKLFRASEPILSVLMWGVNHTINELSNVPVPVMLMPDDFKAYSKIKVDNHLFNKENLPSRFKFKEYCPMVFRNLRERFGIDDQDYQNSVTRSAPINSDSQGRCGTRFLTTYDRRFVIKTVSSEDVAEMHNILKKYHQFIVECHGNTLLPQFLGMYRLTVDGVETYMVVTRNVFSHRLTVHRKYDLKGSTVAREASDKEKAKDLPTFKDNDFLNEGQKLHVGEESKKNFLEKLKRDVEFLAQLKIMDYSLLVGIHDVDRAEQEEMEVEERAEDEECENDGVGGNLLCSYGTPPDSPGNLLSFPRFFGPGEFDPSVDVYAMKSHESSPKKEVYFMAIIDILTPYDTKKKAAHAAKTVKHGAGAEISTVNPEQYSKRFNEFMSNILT
Chain of Mitogen-activated protein kinase kinase kinase kinase 1 (Homo sapiens) (Q92918 whole entry, looked up): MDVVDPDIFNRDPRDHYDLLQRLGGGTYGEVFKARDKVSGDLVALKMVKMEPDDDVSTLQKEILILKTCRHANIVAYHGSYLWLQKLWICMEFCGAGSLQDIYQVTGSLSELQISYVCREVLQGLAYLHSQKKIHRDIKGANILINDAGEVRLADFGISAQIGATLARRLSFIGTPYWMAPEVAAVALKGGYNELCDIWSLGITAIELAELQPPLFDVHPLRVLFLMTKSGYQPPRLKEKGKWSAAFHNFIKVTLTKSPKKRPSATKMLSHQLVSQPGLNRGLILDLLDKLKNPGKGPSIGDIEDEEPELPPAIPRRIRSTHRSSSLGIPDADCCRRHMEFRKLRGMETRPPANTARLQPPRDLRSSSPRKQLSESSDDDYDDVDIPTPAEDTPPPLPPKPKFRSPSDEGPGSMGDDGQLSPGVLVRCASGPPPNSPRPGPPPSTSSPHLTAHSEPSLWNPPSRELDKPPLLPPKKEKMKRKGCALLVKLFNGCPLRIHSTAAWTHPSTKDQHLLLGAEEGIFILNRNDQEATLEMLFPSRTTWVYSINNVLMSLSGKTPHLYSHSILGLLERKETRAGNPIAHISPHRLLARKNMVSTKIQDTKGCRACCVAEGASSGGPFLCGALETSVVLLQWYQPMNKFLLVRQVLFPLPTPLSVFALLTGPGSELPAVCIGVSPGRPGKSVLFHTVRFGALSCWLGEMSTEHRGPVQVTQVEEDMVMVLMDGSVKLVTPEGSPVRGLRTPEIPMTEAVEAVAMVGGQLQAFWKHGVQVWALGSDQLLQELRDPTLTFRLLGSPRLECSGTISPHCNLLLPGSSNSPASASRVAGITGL
Chain of Phosphorylase b kinase regulatory subunit alpha, liver isoform (Homo sapiens) (P46019 whole entry, canonical isoform): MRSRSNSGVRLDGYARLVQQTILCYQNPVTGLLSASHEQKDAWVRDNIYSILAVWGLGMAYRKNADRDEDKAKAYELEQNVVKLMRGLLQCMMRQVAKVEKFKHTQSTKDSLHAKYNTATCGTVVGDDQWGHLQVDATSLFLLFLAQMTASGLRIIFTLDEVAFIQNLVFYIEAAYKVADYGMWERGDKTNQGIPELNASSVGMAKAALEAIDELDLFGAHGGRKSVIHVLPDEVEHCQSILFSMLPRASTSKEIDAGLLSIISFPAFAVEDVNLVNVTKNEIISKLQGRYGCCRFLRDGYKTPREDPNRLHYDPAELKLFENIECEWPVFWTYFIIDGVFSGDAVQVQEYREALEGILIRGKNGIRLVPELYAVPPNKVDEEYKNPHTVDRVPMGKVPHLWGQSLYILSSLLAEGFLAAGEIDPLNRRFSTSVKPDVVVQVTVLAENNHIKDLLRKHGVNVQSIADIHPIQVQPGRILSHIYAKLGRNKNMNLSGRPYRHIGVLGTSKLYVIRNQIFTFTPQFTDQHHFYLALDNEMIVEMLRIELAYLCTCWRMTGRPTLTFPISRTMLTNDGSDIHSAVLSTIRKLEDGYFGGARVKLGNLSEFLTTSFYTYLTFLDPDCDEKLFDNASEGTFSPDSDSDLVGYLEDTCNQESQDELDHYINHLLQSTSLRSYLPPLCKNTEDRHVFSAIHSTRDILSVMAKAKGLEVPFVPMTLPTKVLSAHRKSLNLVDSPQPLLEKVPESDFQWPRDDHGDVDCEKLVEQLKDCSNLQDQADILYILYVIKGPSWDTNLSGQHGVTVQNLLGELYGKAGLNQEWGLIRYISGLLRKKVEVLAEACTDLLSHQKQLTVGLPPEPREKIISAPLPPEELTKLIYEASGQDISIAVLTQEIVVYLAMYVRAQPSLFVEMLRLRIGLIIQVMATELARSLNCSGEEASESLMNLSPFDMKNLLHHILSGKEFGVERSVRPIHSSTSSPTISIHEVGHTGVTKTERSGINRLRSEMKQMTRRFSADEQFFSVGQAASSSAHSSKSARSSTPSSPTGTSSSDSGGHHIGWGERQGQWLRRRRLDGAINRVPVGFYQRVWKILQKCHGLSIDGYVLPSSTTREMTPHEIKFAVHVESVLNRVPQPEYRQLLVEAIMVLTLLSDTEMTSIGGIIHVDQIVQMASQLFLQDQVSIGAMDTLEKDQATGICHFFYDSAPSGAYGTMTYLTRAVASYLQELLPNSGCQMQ
Chain of Sodium-dependent noradrenaline transporter (Homo sapiens) (P23975 whole entry): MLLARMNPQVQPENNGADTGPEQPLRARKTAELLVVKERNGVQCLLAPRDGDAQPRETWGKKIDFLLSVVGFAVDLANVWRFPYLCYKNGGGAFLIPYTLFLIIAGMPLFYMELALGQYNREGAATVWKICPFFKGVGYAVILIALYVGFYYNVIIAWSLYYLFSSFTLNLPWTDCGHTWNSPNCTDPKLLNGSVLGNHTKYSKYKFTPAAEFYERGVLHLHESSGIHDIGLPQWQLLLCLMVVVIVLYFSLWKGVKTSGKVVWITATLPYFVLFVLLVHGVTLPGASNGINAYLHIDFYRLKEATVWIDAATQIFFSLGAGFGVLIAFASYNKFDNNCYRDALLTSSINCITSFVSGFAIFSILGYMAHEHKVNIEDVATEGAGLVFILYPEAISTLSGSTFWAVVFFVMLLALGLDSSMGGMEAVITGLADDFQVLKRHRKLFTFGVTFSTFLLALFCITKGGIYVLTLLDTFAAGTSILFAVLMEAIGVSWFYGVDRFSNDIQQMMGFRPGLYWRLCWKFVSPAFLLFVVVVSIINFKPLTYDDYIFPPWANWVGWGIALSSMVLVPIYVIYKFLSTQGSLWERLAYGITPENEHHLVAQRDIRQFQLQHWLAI
Chain of Serine/threonine-protein kinase PAK 3 (Homo sapiens) (O75914 whole entry, looked up, canonical isoform): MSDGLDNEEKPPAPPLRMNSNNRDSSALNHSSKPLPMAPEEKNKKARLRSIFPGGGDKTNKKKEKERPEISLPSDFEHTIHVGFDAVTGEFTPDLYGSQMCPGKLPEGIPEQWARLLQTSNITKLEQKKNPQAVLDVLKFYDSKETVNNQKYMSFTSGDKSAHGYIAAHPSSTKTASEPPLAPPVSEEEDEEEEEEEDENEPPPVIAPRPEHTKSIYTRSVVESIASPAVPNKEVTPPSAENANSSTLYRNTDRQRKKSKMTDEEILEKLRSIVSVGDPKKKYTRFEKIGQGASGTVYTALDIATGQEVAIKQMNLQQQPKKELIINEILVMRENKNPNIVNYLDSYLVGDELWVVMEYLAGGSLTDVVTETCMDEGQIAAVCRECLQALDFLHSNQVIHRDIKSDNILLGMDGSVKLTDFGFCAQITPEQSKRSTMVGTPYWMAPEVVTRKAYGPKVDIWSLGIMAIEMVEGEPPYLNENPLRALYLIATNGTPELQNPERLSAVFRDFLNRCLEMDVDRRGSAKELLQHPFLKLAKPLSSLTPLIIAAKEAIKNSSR
Chain of Serine/threonine-protein kinase B-raf (Homo sapiens) (P15056 whole entry, the tested form may be a part): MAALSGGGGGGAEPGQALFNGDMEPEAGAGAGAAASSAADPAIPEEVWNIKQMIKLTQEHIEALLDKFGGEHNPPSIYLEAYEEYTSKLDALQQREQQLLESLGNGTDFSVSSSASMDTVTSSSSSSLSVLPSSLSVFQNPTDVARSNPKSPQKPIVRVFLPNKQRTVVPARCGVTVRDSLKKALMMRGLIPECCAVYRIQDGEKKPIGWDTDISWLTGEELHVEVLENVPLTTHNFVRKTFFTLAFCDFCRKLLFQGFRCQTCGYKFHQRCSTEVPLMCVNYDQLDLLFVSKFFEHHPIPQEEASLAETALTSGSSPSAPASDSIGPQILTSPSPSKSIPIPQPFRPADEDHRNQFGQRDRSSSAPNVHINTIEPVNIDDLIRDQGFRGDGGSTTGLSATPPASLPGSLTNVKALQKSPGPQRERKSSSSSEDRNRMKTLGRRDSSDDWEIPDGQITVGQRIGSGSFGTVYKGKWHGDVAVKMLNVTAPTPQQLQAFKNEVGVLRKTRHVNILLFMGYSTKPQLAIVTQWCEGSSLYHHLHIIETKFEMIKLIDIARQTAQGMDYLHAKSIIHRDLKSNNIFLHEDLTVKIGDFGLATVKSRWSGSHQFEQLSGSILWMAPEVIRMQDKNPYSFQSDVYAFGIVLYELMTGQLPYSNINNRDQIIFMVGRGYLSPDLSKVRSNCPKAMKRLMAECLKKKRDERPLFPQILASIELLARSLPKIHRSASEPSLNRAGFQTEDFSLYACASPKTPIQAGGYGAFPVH
Chain of Serine/threonine-protein kinase DCLK3 (Homo sapiens) (Q9C098 whole entry): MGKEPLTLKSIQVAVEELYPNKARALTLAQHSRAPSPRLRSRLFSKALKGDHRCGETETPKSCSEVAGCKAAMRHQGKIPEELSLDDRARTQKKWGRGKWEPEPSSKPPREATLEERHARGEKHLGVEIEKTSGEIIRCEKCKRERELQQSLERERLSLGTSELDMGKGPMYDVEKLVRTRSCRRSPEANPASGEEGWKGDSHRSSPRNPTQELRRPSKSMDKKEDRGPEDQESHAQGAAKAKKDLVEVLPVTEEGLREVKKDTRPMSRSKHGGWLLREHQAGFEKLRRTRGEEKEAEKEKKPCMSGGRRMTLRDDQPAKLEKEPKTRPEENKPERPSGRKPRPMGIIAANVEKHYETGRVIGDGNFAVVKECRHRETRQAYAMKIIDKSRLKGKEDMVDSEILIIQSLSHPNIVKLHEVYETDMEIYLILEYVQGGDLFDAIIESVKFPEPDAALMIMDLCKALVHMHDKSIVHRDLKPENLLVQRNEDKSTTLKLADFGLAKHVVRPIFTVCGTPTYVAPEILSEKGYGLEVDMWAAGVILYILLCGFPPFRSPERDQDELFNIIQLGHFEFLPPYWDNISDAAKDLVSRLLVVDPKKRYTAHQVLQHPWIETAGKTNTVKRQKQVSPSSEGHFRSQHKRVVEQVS

SMILES: CNC(=O)c1ccc(Nc2ncc(C(F)(F)F)c(NCc3nccnc3N(C)S(C)(=O)=O)n2)cc1 [DEFACTINIB]
- residual activity [1, 36]: 18%
- residual activity [2, 36]: 82%
- residual activity [3, 36]: 100%
- residual activity [4, 36]: 80%
- residual activity [5, 36]: 23%
- residual activity [6, 36]: 80%
- residual activity [7, 36]: 100%
- residual activity [8, 36]: 99%
- residual activity [9, 36]: 80%
- residual activity [10, 36]: 100%
- residual activity [11, 36]: 87%
- residual activity [12, 36]: 86%
- residual activity [13, 36]: 47%
- residual activity [14, 36]: 88%
- residual activity [15, 36]: 25%
- residual activity [16, 36]: 68%
- residual activity [17, 36]: 8.3%
- residual activity [18, 36]: 67%
- residual activity [19, 36]: 81%
- inhibition [20]: 7.81%
- residual activity [21, 36]: 67%
- residual activity [22, 36]: 54%
- residual activity [23, 36]: 100%
- residual activity [24, 36]: 91%
- residual activity [25, 36]: 100%
- residual activity [26, 36]: 75%
- residual activity [27, 36]: 100%
- residual activity [28, 36]: 89%
- residual activity [29, 36]: 81%
- residual activity [30, 36]: 82%
- residual activity [31, 36]: 84%
- residual activity [32, 36]: 96%
- residual activity [33, 36]: 28%
- residual activity [34, 36]: 90%
- residual activity [35, 36]: 83%
- inhibition (Rattus norvegicus): 31.4%

SMILES: CN(c1ccnc(CNc2nc(Nc3ccc4c(c3)CC(=O)N4)ncc2C(F)(F)F)n1)S(C)(=O)=O [PF-00911705]
- residual activity [1, 37]: 33%
- residual activity [2, 37]: 77%
- residual activity [3, 37]: 40%
- residual activity [4, 37]: 27%
- residual activity [5, 37]: 4.4%
- residual activity [6, 37]: 78%
- residual activity [7, 37]: 77%
- residual activity [8, 37]: 18%
- residual activity [9, 37]: 93%
- residual activity [10, 37]: 82%
- residual activity [11, 37]: 94%
- residual activity [12, 37]: 96%
- residual activity [13, 37]: 48%
- residual activity [14, 37]: 84%
- residual activity [15, 37]: 1.4%
- residual activity [16, 37]: 49%
- residual activity [17, 37]: 13%
- residual activity [18, 37]: 34%
- residual activity [19, 37]: 44%
- inhibition [20]: 3.15%
- residual activity [21, 37]: 43%
- residual activity [22, 37]: 21%
- residual activity [23, 37]: 40%
- residual activity [24, 37]: 4.8%
- residual activity [25, 37]: 88%
- residual activity [26, 37]: 63%
- residual activity [27, 37]: 100%
- residual activity [28, 37]: 100%
- residual activity [29, 37]: 0%
- residual activity [30, 37]: 72%
- residual activity [31, 37]: 7.6%
- residual activity [32, 37]: 62%
- residual activity [33, 37]: 6.7%
- residual activity [34, 37]: 100%
- residual activity [35, 37]: 48%
- inhibition (Rattus norvegicus): 62.1%
